Reference: PubChem BioAssay AID330 (DTP/NCI, 2004)
Values joined by “and” are separate entries in the source; they are usually repeats but may differ in a detail not shown here. Equal values may be shown once. Inconclusive results and toxic doses are left out.

Tested on: P388 leukemia ip, CD2F1 mice, survival T/C
Test: NCI In Vivo Anticancer Drug Screen. Data for tumor model P388 Leukemia (intraperitoneal) in CD2F1 (CDF1) mice
Details: endpoint: median survival time, higher = longer survival
Summary of the method: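 Mice carrying the transplanted tumor received test compound or vehicle. Survival was recorded in each group, and the value is the treated-group measurement divided by that of the vehicle-treated control group.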

[1] = dose: 60.0 mg/kg/injection, schedule: Q01DX005 (ip), vehicle: Klucel (hydroxypropylcellulose) (HPC)
[2] = dose: 120.0 mg/kg/injection, schedule: Q01DX005 (ip), vehicle: Klucel (hydroxypropylcellulose) (HPC)
[3] = dose: 50.0 mg/kg/injection, schedule: Q01DX005 (ip), vehicle: Klucel (hydroxypropylcellulose) (HPC)
[4] = dose: 100.0 mg/kg/injection, schedule: Q01DX005 (ip), vehicle: Klucel (hydroxypropylcellulose) (HPC)
[5] = dose: 200.0 mg/kg/injection, schedule: Q01DX005 (ip), vehicle: Klucel (hydroxypropylcellulose) (HPC)
[6] = dose: 100.0 mg/kg/injection, schedule: Q04DX003 (ip), vehicle: saline
[7] = dose: 200.0 mg/kg/injection, schedule: Q04DX003 (ip), vehicle: saline
[8] = dose: 100.0 mg/kg/injection, schedule: Q01DX001 (ip), vehicle: Klucel (hydroxypropylcellulose) (HPC)
[9] = dose: 200.0 mg/kg/injection, schedule: Q01DX001 (ip), vehicle: Klucel (hydroxypropylcellulose) (HPC)
[10] = dose: 400.0 mg/kg/injection, schedule: Q01DX001 (ip), vehicle: Klucel (hydroxypropylcellulose) (HPC)
[11] = dose: 50.0 mg/kg/injection, schedule: Q01DX009 (ip), vehicle: saline with Tween-80
[12] = dose: 100.0 mg/kg/injection, schedule: Q01DX009 (ip), vehicle: saline with Tween-80
[13] = dose: 20.0 mg/kg/injection, schedule: Q01DX009 (ip), vehicle: saline with Tween-80
[14] = dose: 40.0 mg/kg/injection, schedule: Q01DX009 (ip), vehicle: saline with Tween-80
[15] = dose: 50.0 mg/kg/injection, schedule: Q01DX009 (ip), vehicle: saline
[16] = dose: 200.0 mg/kg/injection, schedule: Q01DX009 (ip), vehicle: saline

`CCC1(N(C)C)C(=O)NC(=O)N(C)C1=O` (stereo not drawn) was tested, and the T/C [1] was 103 % of control, the T/C [2] was 101 % of control and the T/C (dose: 2400.0 mg/kg/injection, schedule: Q01DX005 (ip), vehicle: Klucel (hydroxypropylcellulose) (HPC)) was 104 % of control.
In the case of `O=C(OCC#CCOC(=O)C(Cl)Cl)C(Cl)Cl`, the T/C (dose: 100.0 mg/kg/injection, schedule: Q04DX003 (ip), vehicle: saline with Tween-80) is reported as 108 % of control, the T/C (dose: 200.0 mg/kg/injection, schedule: Q04DX003 (ip), vehicle: saline with Tween-80) is reported as 104 % of control and the T/C (dose: 400.0 mg/kg/injection, schedule: Q04DX003 (ip), vehicle: saline with Tween-80) is reported as 100 % of control.
In the case of `COc1ccc(/C=C2\CCN=C2c2ccccc2)cc1OC`, the T/C [3] is reported as 101 % of control, the T/C [4] is reported as 97 % of control and the T/C [5] is reported as 96 % of control.
`OCC(O)C(O)C(O)C(/C=N\Nc1ccccc1)=N/Nc1ccccc1` (stereo not drawn) was tested, and the T/C (dose: 100.0 mg/kg/injection, schedule: Q04DX002 (ip), vehicle: saline) was 100 % of control, the T/C (dose: 200.0 mg/kg/injection, schedule: Q04DX002 (ip), vehicle: saline) was 97 % of control and the T/C (dose: 400.0 mg/kg/injection, schedule: Q04DX002 (ip), vehicle: saline) was 102 % of control.
In the case of `O=C1C2C3C=CC(C3)C2C(=O)N1O` (stereo not drawn), the T/C (dose: 50.0 mg/kg/injection, schedule: Q01DX005 (ip), vehicle: saline with Tween-80) is reported as 101 % of control, the T/C (dose: 100.0 mg/kg/injection, schedule: Q01DX005 (ip), vehicle: saline with Tween-80) is reported as 100 % of control and the T/C (dose: 200.0 mg/kg/injection, schedule: Q01DX005 (ip), vehicle: saline with Tween-80) is reported as 100 % of control.
For `OCC(COCCCCCCCCCCCC1C=CCC1)OCCCCCCCCCCCC1C=CCC1` (stereo not drawn), the T/C [6] was 101 % of control, the T/C [7] was 104 % of control and the T/C (dose: 400.0 mg/kg/injection, schedule: Q04DX003 (ip), vehicle: saline) was 104 % of control.
`C=CCn1c(=O)c2[nH]c(Cl)nc2n(CC)c1=O` was tested, and the T/C (dose: 16.0 mg/kg/injection, schedule: Q01DX009 (ip), vehicle: Klucel (hydroxypropylcellulose) (HPC)) was 100 % of control and 105 % of control, the T/C (dose: 32.0 mg/kg/injection, schedule: Q01DX009 (ip), vehicle: Klucel (hydroxypropylcellulose) (HPC)) was 106 % of control and 94 % of control and the T/C (dose: 64.0 mg/kg/injection, schedule: Q01DX009 (ip), vehicle: Klucel (hydroxypropylcellulose) (HPC)) was 102 % of control and 106 % of control.
For `COc1cc(N=C=S)ccc1NC(=O)c1cc(Br)cc(Br)c1O`, the T/C [8] was 106 % of control, the T/C [9] was 101 % of control and the T/C [10] was 106 % of control.
For `O=C1CSc2c(ccc3c4c([nH]c23)C(=O)CCC4)N1`, the T/C [8] was 99 % of control, the T/C [9] was 90 % of control and the T/C [10] was 97 % of control.
In the case of `COc1ccc(SS(=O)c2ccc(C)cc2)cc1` (stereo not drawn), the T/C (dose: 100.0 mg/kg/injection, schedule: Q01DX001 (ip), vehicle: other) is reported as 105 % of control, the T/C (dose: 200.0 mg/kg/injection, schedule: Q01DX001 (ip), vehicle: other) is reported as 106 % of control and the T/C (dose: 400.0 mg/kg/injection, schedule: Q01DX001 (ip), vehicle: other) is reported as 111 % of control.
`C/C1=C(O[Si](C)(C)C)/C(O[Si](C)(C)C)=C(/C)CCCC1` was tested, and the T/C [11] was 100 % of control, the T/C [12] was 94 % of control and the T/C (dose: 200.0 mg/kg/injection, schedule: Q01DX009 (ip), vehicle: saline with Tween-80) was 97 % of control.
For `CCCCCCCOCC(=O)O`, the T/C [11] was 100 % of control and the T/C [12] was 94 % of control.
For `CCCCN(CCCC)/C(N)=N/O`, the T/C [13] was 92 % of control, the T/C [14] was 100 % of control and the T/C (dose: 80.0 mg/kg/injection, schedule: Q01DX009 (ip), vehicle: saline with Tween-80) was 107 % of control.
For `O=C1c2ccccc2C(=O)N1CN(CS(=O)(=O)c1ccccc1)c1ccccc1`, the T/C [1] was 98 % of control, the T/C [2] was 88 % of control and the T/C (dose: 240.0 mg/kg/injection, schedule: Q01DX005 (ip), vehicle: Klucel (hydroxypropylcellulose) (HPC)) was 86 % of control.
With `COc1ccc(C2=C(Cl)C(=O)N(c3ccc(O)cc3)C(=O)C2(Cl)Cl)cc1` the T/C (dose: 100.0 mg/kg/injection, schedule: Q04DX002 (ip), vehicle: Klucel (hydroxypropylcellulose) (HPC)) was 106 % of control, the T/C (dose: 200.0 mg/kg/injection, schedule: Q04DX002 (ip), vehicle: Klucel (hydroxypropylcellulose) (HPC)) was 107 % of control and the T/C (dose: 400.0 mg/kg/injection, schedule: Q04DX002 (ip), vehicle: Klucel (hydroxypropylcellulose) (HPC)) was 116 % of control.
With `C=C(CC(=O)Nc1nc(C)c(C(=O)OC)s1)C(=O)O` the T/C (dose: 12.5 mg/kg/injection, schedule: Q01DX009 (ip), vehicle: saline with Tween-80) was 107 % of control, the T/C (dose: 25.0 mg/kg/injection, schedule: Q01DX009 (ip), vehicle: saline with Tween-80) was 100 % of control and the T/C [11] was 105 % of control. For the same molecule, the T/C [15] was 99 % of control and the T/C [16] was 96 % of control.
`O=C(O)C(Cc1ccccc1)N1C(=O)C=CC1=O` (stereo not drawn) was tested, and the T/C (dose: 10.0 mg/kg/injection, schedule: Q01DX009 (ip), vehicle: saline with Tween-80) was 112 % of control, the T/C [13] was 107 % of control and the T/C [14] was 104 % of control and 95 % of control. For the same molecule, the T/C (dose: 50.0 mg/kg/injection, schedule: Q01DX009 (ip), vehicle: Klucel (hydroxypropylcellulose) (HPC)) was 89 % of control and the T/C (dose: 100.0 mg/kg/injection, schedule: Q01DX009 (ip), vehicle: Klucel (hydroxypropylcellulose) (HPC)) was 90 % of control.
With `CCCCCCCC(=O)Nc1ccc(CC)cc1` the T/C (dose: 100.0 mg/kg/injection, schedule: Q04DX003 (ip), vehicle: other) was 109 % of control, the T/C (dose: 200.0 mg/kg/injection, schedule: Q04DX003 (ip), vehicle: other) was 90 % of control and the T/C (dose: 400.0 mg/kg/injection, schedule: Q04DX003 (ip), vehicle: other) was 118 % of control.
In the case of `c1ccc(-c2nnc3nn4c(-c5ccccc5)cnnc4c3c2-c2ccccc2)cc1`, the T/C [3] is reported as 93 % of control, the T/C [4] is reported as 91 % of control and the T/C [5] is reported as 90 % of control.
With `CC(=O)Nc1ccc(Cl)cc1C(O)c1ccccc1` (stereo not drawn) the T/C (dose: 12.5 mg/kg/injection, schedule: Q01DX005 (ip), vehicle: Klucel (hydroxypropylcellulose) (HPC)) was 89 % of control, the T/C (dose: 25.0 mg/kg/injection, schedule: Q01DX005 (ip), vehicle: Klucel (hydroxypropylcellulose) (HPC)) was 91 % of control and the T/C [3] was 98 % of control and 99 % of control.
In the case of `CC(Nc1cccc([N+](=O)[O-])c1)S(=O)(=O)O` (stereo not drawn), the T/C [15] is reported as 97 % of control, the T/C (dose: 100.0 mg/kg/injection, schedule: Q01DX009 (ip), vehicle: saline) is reported as 100 % of control and the T/C [16] is reported as 97 % of control.
In the case of `O=NNc1ccc(Br)cn1`, the T/C (dose: 1.5 mg/kg/injection, schedule: Q01DX008 (ip), vehicle: water) is reported as 100 % of control, the T/C (dose: 1.56 mg/kg/injection, schedule: Q01DX009 (ip), vehicle: water) is reported as 115 % of control and the T/C (dose: 6.25 mg/kg/injection, schedule: Q01DX008 (ip), vehicle: water) is reported as 154 % of control. The T/C (dose: 12.5 mg/kg/injection, schedule: Q01DX009 (ip), vehicle: water) was 184 % of control and the T/C (dose: 25.0 mg/kg/injection, schedule: Q01DX008 (ip), vehicle: water) was 181 % of control.
In the case of `CN(C)c1ccc(/C=C2\C=Cc3ccccc32)cc1Cl`, the T/C (dose: 6.25 mg/kg/injection, schedule: Q01DX009 (ip), vehicle: saline) is reported as 101 % of control, the T/C (dose: 12.5 mg/kg/injection, schedule: Q01DX009 (ip), vehicle: saline) is reported as 87 % of control and the T/C (dose: 25.0 mg/kg/injection, schedule: Q01DX009 (ip), vehicle: saline) is reported as 94 % of control. For the same molecule, the T/C [15] was 94 % of control.
`N/C(=N\O)c1cn(C2OC(CO)C(O)C2O)c2ncnc(N)c12` (stereo not drawn) was tested, and the T/C (dose: 2.5 mg/kg/injection, schedule: Q01DX009 (ip), vehicle: saline sonified) was 154 % of control and the T/C (dose: 5.0 mg/kg/injection, schedule: Q01DX009 (ip), vehicle: saline sonified) was 159 % of control.
`CNCC(CO)C(C)(C)C` (stereo not drawn) was tested, and the T/C [6] was 101 % of control and the T/C [7] was 92 % of control.
For `C/C=C1/CN2CCC34c5ccccc5N(C)C23C2CC1C4(C(=O)OC)C(O)O2` (stereo not drawn), the T/C (dose: 9.25 mg/kg/injection, schedule: Q01DX005 (ip), vehicle: saline + Tween-80 + alcohol) was 114 % of control, the T/C (dose: 18.5 mg/kg/injection, schedule: Q01DX005 (ip), vehicle: saline + Tween-80 + alcohol) was 93 % of control and the T/C (dose: 37.0 mg/kg/injection, schedule: Q01DX005 (ip), vehicle: saline + Tween-80 + alcohol) was 100 % of control. For the same molecule, the T/C (dose: 74.0 mg/kg/injection, schedule: Q01DX005 (ip), vehicle: saline + Tween-80 + alcohol) was 100 % of control.
